{
  "source": "patent US20230027066A1",
  "about": "(Urovant Sciences GmbH, priority 2019, published 2023)",
  "key": {"[1]": {"test": "Phase 3 study (75 mg), adverse events", "type": "in vivo, human", "protocol": "Study assessments of safety included adverse events, physical examinations, vital signs (and weight), and clinical laboratory tests\nAn adverse event is any untoward medical occurrence in a patient or clinical investigation patient, temporally associated with the use of a medicinal product, whether or not considered related to the medicinal product.\nAdverse Events of Clinical Interest for this study included:\nSafety analyses were conducted using the SAF and summarized by treatment group as treated. The treatment-emergent period is defined as the period of time from the first dose date of the double blinded Study Treatment through 28 days after the last dose of Study Treatment, or the date of initiation of another investigational agent or surgical intervention or rollover to the extension study, whichever occurs first. Safety was assessed through summaries of adverse events, the frequency of treatment discontinuations due to adverse events, and clinical laboratory evaluations."}, "[2]": {"tested_on": "men and women with overactive bladder", "test": "40-week extension study (52 weeks), efficacy", "type": "in vivo, human", "from_the_text": "All CFB calculations used the parent study Baseline value."}, "[3]": {"conditions": "40-Week treatment group, Full Analysis Set Extension"}, "[4]": {"conditions": "40-Week treatment group, multiple imputation"}},
  "data": [
    {"compound": "O=C(Nc1ccc(C[C@@H]2CC[C@H]([C@H](O)c3ccccc3)N2)cc1)[C@@H]1CCc2nccc(=O)n21", "note": "[Vibegron, (6S)-N-[4-[[(2S,5R)−5-[(R)-hydroxy(phenyl)methyl]pyrrolidin−2-yl]methyl]phenyl]−4-oxo−7,8-dihydro−6H-pyrrolo[1,2-a]pyrimidine−6-carboxamide]", "values": [
      {"measurement": "AE: ALT increase", "setting": "[1]; 12-week study", "result": "1 (0.2) n (%)"},
      {"measurement": "AE: AST increase", "setting": "[1]; 12-week study", "result": "1 (0.2) n (%)"},
      {"measurement": "AE: Atrial fibrillation", "setting": "[1]; 12-week study", "result": "1 (0.2) n (%)"},
      {"measurement": "AE: Bilirubin increased", "setting": "[1]; 12-week study", "result": "0 n (%)"},
      {"measurement": "AE: Blood creatinine increased", "setting": "[1]; 12-week study", "result": "1 (0.2) n (%)"},
      {"measurement": "AE: Blood pressure diastolic increased", "setting": "[1]; 12-week study", "result": "0 n (%)"},
      {"measurement": "AE: Blood pressure increased", "setting": "[1]; 12-week study", "result": "4 (0.7) n (%)"},
      {"measurement": "AE: Cardiac failure congestive", "setting": "[1]; 12-week study", "result": "1 (0.2%) n (%)"},
      {"measurement": "AE: Cerebrovascular accident", "setting": "[1]; 12-week study", "result": "1 (0.2) n (%)"},
      {"measurement": "AE: Chest discomfort", "setting": "[1]; 12-week study", "result": "4 (0.7) n (%)"},
      {"measurement": "AE: Chest pain", "setting": "[1]; 12-week study", "result": "0 n (%)"},
      {"measurement": "AE: Chronic kidney disease", "setting": "[1]; 12-week study", "result": "1 (0.2) n (%)"},
      {"measurement": "AE: Constipation", "setting": "[1]; 12-week study", "result": "9 (1.7) n (%)"},
      {"measurement": "AE: Cystitis", "setting": "[1]; 12-week study", "result": "1 (0.2) n (%)"},
      {"measurement": "AE: Diarrhea", "setting": "[1]; 12-week study", "result": "12 (2.2) n (%)"},
      {"measurement": "AE: Dizziness", "setting": "[1]; 12-week study", "result": "5 (0.9) n (%)"},
      {"measurement": "AE: Drug hypersensitivity", "setting": "[1]; 12-week study", "result": "2 (0.4) n (%)"},
      {"measurement": "AE: Dry mouth", "setting": "[1]; 12-week study", "result": "9 (1.7) n (%)"},
      {"measurement": "AE: Dysuria", "setting": "[1]; 12-week study", "result": "0 n (%)"},
      {"measurement": "AE: Escherichia urinary-tract infection", "setting": "[1]; 12-week study", "result": "0 n (%)"},
      {"measurement": "AE: Fatigue", "setting": "[1]; 12-week study", "result": "2 (0.4) n (%)"},
      {"measurement": "AE: Glomerular filtration rate decreased", "setting": "[1]; 12-week study", "result": "1 (0.2) n (%)"},
      {"measurement": "AE: Headache", "setting": "[1]; 12-week study", "result": "22 (4.0) n (%)"},
      {"measurement": "AE: Hepatic enzyme increased", "setting": "[1]; 12-week study", "result": "0 n (%)"},
      {"measurement": "AE: Hot flush", "setting": "[1]; 12-week study", "result": "4 (0.7) n (%)"},
      {"measurement": "AE: Hyperglycemia", "setting": "[1]; 12-week study", "result": "3 (0.6) n (%)"},
      {"measurement": "AE: Hypertension", "setting": "[1]; 12-week study", "result": "9 (1.7) n (%)"},
      {"measurement": "AE: Hypotension", "setting": "[1]; 12-week study", "result": "1 (0.2) n (%)"},
      {"measurement": "AE: Nasopharyngitis", "setting": "[1]; 12-week study", "result": "15 (2.8) n (%)"},
      {"measurement": "AE: Nausea", "setting": "[1]; 12-week study", "result": "12 (2.2) n (%)"},
      {"measurement": "AE: Pollakiuria", "setting": "[1]; 12-week study", "result": "0 n (%)"},
      {"measurement": "AE: Positional vertigo", "setting": "[1]; 12-week study", "result": "0 n (%)"},
      {"measurement": "AE: Residual urine volume increased", "setting": "[1]; 12-week study", "result": "4 (0.7) n (%)"},
      {"measurement": "AE: Somnolence", "setting": "[1]; 12-week study", "result": "2 (0.4) n (%)"},
      {"measurement": "AE: Syncope", "setting": "[1]; 12-week study", "result": "0 n (%)"},
      {"measurement": "AE: Tachycardia", "setting": "[1]; 12-week study", "result": "0 n (%)"},
      {"measurement": "AE: Transaminases increased", "setting": "[1]; 12-week study", "result": "1 (0.2) n (%)"},
      {"measurement": "AE: Type 2 diabetes mellitus", "setting": "[1]; 12-week study", "result": "2 (0.4) n (%)"},
      {"measurement": "AE: Urinary retention", "setting": "[1]; 12-week study", "result": "3 (0.6) n (%)"},
      {"measurement": "AE: Urinary tract infection", "setting": "[1]; 12-week study", "result": "27 (5.0) n (%)"},
      {"measurement": "AE: Vertigo", "setting": "[1]; 12-week study", "result": "1 (0.2) n (%)"},
      {"measurement": "AE: Back pain", "setting": "[1]; patients ≥75 years", "result": 2.7, "unit": "%"},
      {"measurement": "AE: Diarrhea", "setting": "[1]; patients ≥75 years", "result": 4.0, "unit": "%"},
      {"measurement": "AE: Dyspnea", "setting": "[1]; patients ≥75 years", "result": 4.0, "unit": "%"},
      {"measurement": "AE: Nausea", "setting": "[1]; patients ≥75 years", "result": 2.7, "unit": "%"},
      {"measurement": "AE: Rash", "setting": "[1]; patients ≥75 years", "result": 2.7, "unit": "%"},
      {"measurement": "AE: Somnolence", "setting": "[1]; patients ≥75 years", "result": 2.7, "unit": "%"},
      {"measurement": "AE: Upper respiratory tract infection", "setting": "[1]; patients ≥75 years", "result": 4.0, "unit": "%"},
      {"measurement": "AE: Urinary retention", "setting": "[1]; patients ≥75 years", "result": 2.7, "unit": "%"},
      {"measurement": "AE: Urinary tract infection", "setting": "[1]; patients ≥75 years", "result": 8.0, "unit": "%"},
      {"measurement": "Overall AE rate", "setting": "[1]; patients ≥75 years", "result": 49.3, "unit": "%"},
      {"measurement": "Any AE of clinical interest, %", "setting": "[1]; safety population", "result": "(6.6%)"},
      {"measurement": "Patients with at least one treatment emergent serious AEs, %", "setting": "[1]; safety population", "result": "(1.5) %"},
      {"measurement": "SAEs considered treatment-related by the investigator, %", "setting": "[1]; safety population", "result": "(0.4) %"},
      {"measurement": "SAEs: Hospitalization, %", "setting": "[1]; safety population", "result": "(1.3) %"},
      {"measurement": "SAEs: other serious criteria, %", "setting": "[1]; safety population", "result": "(0.4) %"},
      {"measurement": "Patients with at least one treatment emergent adverse events, %", "setting": "[1]; safety population, 12-week study", "result": "(38.7) %"},
      {"measurement": "Patients with at least one Serious AE", "setting": "[1]; vibegron 75 mg or tolterodine ER 4 mg once daily, 12 weeks", "result": 1.5, "unit": "%"},
      {"measurement": "Micturitions, Change from Baseline at Week 52, Mean", "setting": "[2]; 40-Week arm", "result": "−3.1"},
      {"measurement": "UUI Episodes, Change from Baseline at Week 52, Mean", "setting": "[2]; 40-Week arm", "result": "−2.3"},
      {"measurement": "UUI Episodes, Week 52 Mean", "setting": "[2]; 40-Week arm", "result": 1.2},
      {"measurement": "Urgency Episodes, Change from Baseline at Week 52, Mean", "setting": "[2]; 40-Week arm", "result": "−4.0"},
      {"measurement": "Urgency Episodes, Week 52 Mean", "setting": "[2]; 40-Week arm", "result": 4.7},
      {"measurement": "Micturitions, Week 52 Mean", "setting": "[2]; 40-Week arm, Full Analysis Set Extension", "result": 9.3},
      {"measurement": "Total urinary incontinence episodes, Change from Baseline Mean at Week 52", "setting": "[2]; [3]", "result": "−2.5"},
      {"measurement": "Total urinary incontinence episodes, Week 52 Mean", "setting": "[2]; [3]", "result": 1.8},
      {"measurement": "UUI Episodes 75% Responders at Week 52", "setting": "[2]; [4]", "result": 58.7, "unit": "%"},
      {"measurement": "UUI Episodes 100% Responders at Week 52", "setting": "[2]; [4]", "result": 42.1, "unit": "%"},
      {"measurement": "Urgency Episodes 50% Responders at Week 52", "setting": "[2]; [4]", "result": 51.4, "unit": "%"},
      {"measurement": "Micturitions, Change from Baseline at Week 52, Mean", "setting": "[2]; 52-Week arm", "result": "−2.5"},
      {"measurement": "UUI Episodes, Change from Baseline at Week 52, Mean", "setting": "[2]; 52-Week arm", "result": "−2.2"},
      {"measurement": "UUI Episodes, Week 52 Mean", "setting": "[2]; 52-Week arm", "result": 1.0},
      {"measurement": "Urgency Episodes, Change from Baseline at Week 52, Mean", "setting": "[2]; 52-Week arm", "result": "−3.4"},
      {"measurement": "Urgency Episodes, Week 52 Mean", "setting": "[2]; 52-Week arm", "result": 4.5},
      {"measurement": "Micturitions, Week 52 Mean", "setting": "[2]; 52-Week arm, Full Analysis Set Extension", "result": 8.7}
    ]}
  ]
}
